This assay deals with T1, human mAChR M1 (Homo sapiens, UniProt P11229).
T1 construct: host or cells: CHO-K1 (ATCC), stably transfected using Lipofectamine 2000
T1 sequence (P11229 1-460): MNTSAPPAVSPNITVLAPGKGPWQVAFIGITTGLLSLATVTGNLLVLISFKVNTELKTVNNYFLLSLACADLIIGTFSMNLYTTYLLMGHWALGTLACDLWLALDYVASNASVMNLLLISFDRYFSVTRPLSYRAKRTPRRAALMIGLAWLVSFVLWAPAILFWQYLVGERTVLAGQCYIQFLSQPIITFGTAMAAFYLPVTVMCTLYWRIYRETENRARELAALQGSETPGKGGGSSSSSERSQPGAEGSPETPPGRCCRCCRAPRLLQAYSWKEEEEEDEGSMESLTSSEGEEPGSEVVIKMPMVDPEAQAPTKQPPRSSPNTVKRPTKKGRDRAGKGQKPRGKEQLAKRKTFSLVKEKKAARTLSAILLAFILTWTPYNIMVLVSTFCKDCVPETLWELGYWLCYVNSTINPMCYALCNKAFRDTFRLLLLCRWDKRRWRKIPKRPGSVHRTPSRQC
The assay is described as follows: mAChR M1 cell-based functional assay (calcium mobilization, Fluo-4, FDSS). To be noted: CHO-K1 cells stably expressing hM1, calcium flux; for Emax: PAM mode with EC20 acetylcholine; for EC50: concentration-dependent increase in the EC20 acetylcholine response. The text has this:
Chinese hamster ovary (CHO-K1) cells stably expressing rat (r)M1 were purchased from the American Type Culture Collection and cultured according to their indicated protocol. CHO cells stably expressing human (h)M2, hM3, and hM5 were described previously (Levey, et al., 1991); hM1 and hM4 cDNAs were purchased from Missouri S&T cDNA Resource; rM4 cDNA was provided by T. I. Bonner (National Institutes of Health, Bethesda, Md.). rM2 and rM3 were cloned from a rat brain cDNA library and sequence verified. hM1, rM2, rM3, hM4, and rM4 cDNAs were used to stably transfect CHO-K1 cells purchased from the American Type Culture Collection using Lipofectamine 2000. To make stable rM2, hM2, rM3, hM4, and rM4 cell lines for use in calcium mobilization assays, these cells also were stably transfected with a chimeric G-protein (Gqi5) (provided by B. R. Conklin, University of California, San Francisco) using Lipofectamine 2000. rM1, hM1, rM3, hM3, rM5, and hM5 cells were grown in Ham's F-12 medium containing 10% heat-inactivated fetal bovine serum (FBS), 20 mM HEPES, and 50 µg/mL G418 sulfate. rM2-Gqi5, hM2-Gqi5, and hM4-Gqi5 cells were grown in the same medium also containing 500 μg/mL Hygromycin B. Stable rM4-Gqi5 cells were grown in DMEM containing 10% heat-inactivated FBS, 20 mM HEPES, 400 μg/mL G418 sulfate, and 500 μg/mL Hygromycin B.
For high throughput measurement of agonist-evoked increases in intracellular calcium, CHO-K1 cells stably expressing muscarinic receptors were plated in growth medium lacking G418 and hygromycin at 15,000 cells/20 μL/well in Greiner 384-well black-walled, tissue culture (TC)-treated, clear-bottom plates (VWR). Cells were incubated overnight at 37° C. and 5% CO2. The next day, cells were washed using an ELX 405 (BioTek) with four washes ([…]) of assay buffer then aspirated to 20 μL. Next, 20 μL of 16 μM Fluo-4/acetoxymethyl ester (Invitrogen, Carlsbad, Calif.) prepared as a 2.3 mM stock in DMSO and mixed in a 1:1 ratio with 10% (w/v) Pluronic F-127 and diluted in assay buffer was added to the wells and the cell plates were incubated for 50 min at 37° C. and 5% CO2. Dye was removed by washing with the ELX 405 (four 80 μL washes of assay buffer) then aspirated to 20 μL. Compound master plates were formatted in an 11 point CRC format (1:3 dilutions) in 100% DMSO with a starting concentration of 10 mM using the BRAVO liquid handler (Agilent). Test compound CRCs were then transferred to daughter plates (240 nL) using the Echo acoustic plate reformatter (Labcyte, Sunnyvale, Calif.) and then diluted into assay buffer (40 μL) to a 2× stock using a Thermo Fisher Combi (Thermo Fisher Scientific, Waltham, Mass.).
Calcium flux was measured using the Functional Drug Screening System (FDSS) 6000 (Hamamatsu Corporation, Tokyo, Japan) as an increase in the fluorescent static ratio. Compounds were applied to cells (20 μL, 2×) using the automated system of the FDSS 6000 at 4 s into the 300 s protocol and the data were collected at 1 Hz. At 144 s into the 300s protocol, 10 μL of an EC20 concentration of the muscarinic receptor agonist acetylcholine was added (5×), followed by the addition of 12 μL an EC80 concentration of acetylcholine at the 230 s time point (5×). Agonist activity was analyzed as a concentration-dependent increase in calcium mobilization upon compound addition. Positive allosteric modulator activity was analyzed as a concentration-dependent increase in the EC20 acetylcholine response. Antagonist activity was analyzed as a concentration-dependent decrease in the EC80 acetylcholine response. Concentration-response curves were generated using a four-parameter logistical equation in XLfit curve fitting software (IDBS, Bridgewater, N.J.) for Excel (Microsoft, Redmond, Wash.) or Prism (GraphPad Software, Inc., San Diego, Calif.).
Activity (EC50 and Emax) was determined in the mAChR M1 cell-based functional assay as described above and the data are shown in Table 2. […]

In the case of `Cn1cc2c(-c3cc(F)c(CN4Cc5cn(CCN6CCCC6)nc5C4=O)c(F)c3)cccc2n1` [Compound 21, 5-(2,6-difluoro-4-(2-methyl-2H-indazol-4-yl)benzyl)-2-(2-(pyrrolidin-1-yl)ethyl)-4,5-dihydropyrrolo[3,4-c]pyrazol-6(2H)-one], the Emax worked out at 57% and the EC50 was 5.18 µM. As for `Cn1cc2cc(-c3cc(F)c(CN4Cc5ncsc5C4=O)c(F)c3)ccc2n1` [Compound 22, 5-(2,6-difluoro-4-(2-methyl-2H-indazol-5-yl)benzyl)-4,5-dihydro-6H-pyrrolo[3,4-d]thiazol-6-one], the Emax stood at 28% and the EC50 was found to be 0.37 µM. Consider `Cc1nn(C)cc1-c1ccc(CN2Cc3sccc3C2=O)c(F)c1` [Compound 43, 5-(4-(1,3-dimethyl-1H-pyrazol-4-yl)-2-fluorobenzyl)-5,6-dihydro-4H-thieno[2,3-c]pyrrol-4-one], for which the Emax is 70%. On the same count and under the same terms, as for `CCCn1ccc2c1C(=O)N(Cc1c(F)cc(-c3cccc4nn(C)cc34)cc1F)C2` [Compound 10, 5-(2,6-difluoro-4-(2-methyl-2H-indazol-4-yl)benzyl)-1-propyl-4,5-dihydropyrrolo[3,4-b]pyrrol-6(1H)-one], the figure is 59%. In the case of `O=C1c2c(ccn2CC2CCCO2)CN1Cc1c(F)cc(-c2ccc3nccn3c2)cc1F` (stereo not shown) [Compound 52, 5-(2,6-difluoro-4-(imidazo[1,2-a]pyridin-6-yl)benzyl)-1-((tetrahydrofuran-2-yl)methyl)-4,5-dihydropyrrolo[3,4-b]pyrrol-6(1H)-one], the Emax worked out at 33% and the EC50 was 2.15 µM. Take `Cn1cc2c(-c3cc(F)c(CN4Cc5cnn(CC6CCCO6)c5C4=O)c(F)c3)cccc2n1` (stereo not shown) [Compound 16, 5-(2,6-difluoro-4-(2-methyl-2H-indazol-4-yl)benzyl)-1-((tetrahydrofuran-2-yl)methyl)-4,5-dihydropyrrolo[3,4-c]pyrazol-6(1H)-one]: the Emax is 93% and the EC50 came out at 0.92 µM. In the case of `Cn1cc(-c2cc(F)c(CN3Cc4cn(CC5CCCO5)nc4C3=O)c(F)c2)cn1` (stereo not shown) [Compound 34, 5-(2,6-difluoro-4-(1-methyl-1H-pyrazol-4-yl)benzyl)-2-((tetrahydrofuran-2-yl)methyl)-4,5-dihydropyrrolo[3,4-c]pyrazol-6(2H)-one], the Emax came to 35%. With `O=C1c2ccsc2CN1Cc1c(F)cc(-c2ccc3nccn3c2)cc1F` [Compound 30, 5-(2,6-difluoro-4-(imidazo[1,2-a]pyridin-6-yl)benzyl)-5,6-dihydro-4H-thieno[2,3-c]pyrrol-4-one], the Emax is 30% and the EC50 was 0.5 µM. With `Cn1cc2cccc(-c3cc(F)c(CN4Cc5occc5C4=O)c(F)c3)c2n1` [Compound 60, 5-(2,6-difluoro-4-(2-methyl-2H-indazol-7-yl)benzyl)-5,6-dihydro-4H-furo[2,3-c]pyrrol-4-one], the Emax turned out to be 50%. For the compound `Cn1cc2cc(-c3cc(F)c(CN4Cc5ccsc5C4=O)c(F)c3)ccc2n1` [Compound 31, 5-(2,6-difluoro-4-(2-methyl-2H-indazol-5-yl)benzyl)-4,5-dihydro-6H-thieno[2,3-c]pyrrol-6-one], the Emax was found to be 40% and the EC50 stood at 0.246 µM. The like results for `Cn1cc2c(-c3cc(F)c(CN4Cc5cnn(CCO)c5C4=O)c(F)c3)cccc2n1` [Compound 24, 5-(2,6-difluoro-4-(2-methyl-2H-indazol-4-yl)benzyl)-1-(2-hydroxyethyl)-4,5-dihydropyrrolo[3,4-c]pyrazol-6(1H)-one] were, in that order, 80% and 0.91 µM. The like results for `Cn1cc2c(-c3cc(F)c(CN4Cc5cn(CC6CCCO6)nc5C4=O)c(F)c3)cccc2n1` (stereo not shown) [Compound 17, 5-(2,6-difluoro-4-(2-methyl-2H-indazol-4-yl)benzyl)-2-((tetrahydrofuran-2-yl)methyl)-4,5-dihydropyrrolo[3,4-c]pyrazol-6(2H)-one] were, in that order, 58% and 3.41 µM.

With `Cn1cc2c(-c3cc(F)c(CN4Cc5cn(CCO)nc5C4=O)c(F)c3)cccc2n1` [Compound 25, 5-(2,6-difluoro-4-(2-methyl-2H-indazol-4-yl)benzyl)-2-(2-hydroxyethyl)-4,5-dihydropyrrolo[3,4-c]pyrazol-6(2H)-one], the Emax stood at 74% and the EC50 amounted to 9.15 µM. On the same counts, the results for `Cn1cc2c(-c3cc(F)c(CN4Cc5sccc5C4=O)c(F)c3)cccc2n1` [Compound 1, 5-(2,6-difluoro-4-(2-methyl-2H-indazol-4-yl)benzyl)-5,6-dihydro-4H-thieno[2,3-c]pyrrol-4-one] are 84% and 1.59 µM.

`Cn1cc2c(-c3cc(F)c(CN4Cc5cn[nH]c5C4=O)c(F)c3)cccc2n1` [Compound 6.2, 5-(2,6-difluoro-4-(2-methyl-2H-indazol-4-yl)benzyl)-4,5-dihydropyrrolo[3,4-c]pyrazol-6(1H)-one]: the Emax is 87%. For `Cn1cc2cc(-c3ccc(CN4Cc5ncsc5C4=O)c(F)c3)ccc2n1` [Compound 13, 5-(2-fluoro-4-(2-methyl-2H-indazol-5-yl)benzyl)-4,5-dihydro-6H-pyrrolo[3,4-d]thiazol-6-one], the Emax was 51% and the EC50 came out at 1.85 µM. The like results for `Cc1nn(C)cc1-c1cc(F)c(CN2Cc3cnn(CC4CCCO4)c3C2=O)c(F)c1` (stereo not shown) [Compound 37, 5-(4-(1,3-dimethyl-1H-pyrazol-4-yl)-2,6-difluorobenzyl)-1-((tetrahydrofuran-2-yl)methyl)-4,5-dihydropyrrolo[3,4-c]pyrazol-6(1H)-one] were, in that order, 77% and 3.22 µM. The like results for `COCCn1ncc2c1C(=O)N(Cc1c(F)cc(-c3cccc4nn(C)cc34)cc1F)C2` [Compound 18, 5-(2,6-difluoro-4-(2-methyl-2H-indazol-4-yl)benzyl)-1-(2-methoxyethyl)-4,5-dihydropyrrolo[3,4-c]pyrazol-6(1H)-one] were, in that order, 87% and 3.1 µM.

Take `Cn1cc2c(-c3cc(F)c(CN4Cc5ccn(CC6CCCO6)c5C4=O)c(F)c3)cccc2n1` (stereo not shown) [Compound 49, 5-(2,6-difluoro-4-(2-methyl-2H-indazol-4-yl)benzyl)-1-((tetrahydrofuran-2-yl)methyl)-4,5-dihydropyrrolo[3,4-b]pyrrol-6(1H)-one]: the Emax came out at 60% and the EC50 is 6.45 µM.

`Cn1cc(-c2cc(F)c(CN3Cc4occc4C3=O)c(F)c2)cn1` [Compound 58, 5-(2,6-difluoro-4-(1-methyl-1H-pyrazol-4-yl)benzyl)-5,6-dihydro-4H-furo[2,3-c]pyrrol-4-one]: the Emax amounted to 78%.

Source of the values: patent US20190330226A1, “POSITIVE ALLOSTERIC MODULATORS OF THE MUSCARINIC ACETYLCHOLINE RECEPTOR M1” (Vanderbilt University, priority 2018, published 2019).
